Data as given in ChEMBL document CHEMBL3507680, “University of Dundee, Gates Library screen for HepG2 cell viability”.

Test: Human HepG2 cell viability assay in 384 well format
Format: toxicity, cell-based
Set-up: dose 125 nL, time 70.5 hour; concentration not given beside the values
Conditions: HepG2 cells, read-out: Inhibition

Structure (SMILES)	cytotoxicity at 70.5 h
O=C(CCc1nc2cccnc2[nH]1)NCc1ccncc1	-19.4%
Cn1c(CN2CCCCCC2)cc(=O)c(O)c1CN1CCCC1	51.6%
Cn1c(C(=O)Nc2nc[nH]n2)cc2ccccc21	10.4%
O=C(CCCNC(=O)c1cnccn1)Nc1ncc[nH]1	-27.2%
COCCn1ccc2c(C(=O)NCC3CCCO3)cccc21 (configuration not stated)	-8.34%
COCCn1cc(CC(=O)Nc2nc[nH]n2)c2ccccc21	-6.37%
COc1ccc2cc(NC(=O)CCCNc3ncccn3)cnc2c1	-30.3%
Cc1c(C2SCC(=O)Nc3c2c(O)nn3C2CCCCC2)cnn1C (configuration not stated)	-24.4%
O=C1CSC(C(F)(F)F)c2c(O)nn(C3CCCC3)c2N1 (configuration not stated)	-22.6%
CC(C)C1SCC(=O)Nc2c1cnn2-c1ccc(Cl)cc1 (configuration not stated)	-1.66%
O=C(CCN1C(=O)CC2(CCCC2)C1=O)NCCc1nccs1	-22.6%
Cc1nn(C)cc1C1SCC(=O)Nc2c1c(O)nn2C(C)C (configuration not stated)	-31.1%
COCCn1cc(C(=O)NC2CCS(=O)(=O)C2)c2ccccc2c1=O (configuration not stated)	-14.8%
O=C(NCCc1nccs1)[C@H](c1ccccc1)n1cnnn1	-5.33%
Cn1cc(-c2nnc3sc(C4CC4)nn23)cn1	-4.13%
O=C(CCc1nc2cc(Br)cnc2[nH]1)NCCCn1ccnc1	-17.5%
CC(C)(C)C1SCC(=O)Nc2c1c(O)nn2C1CCCC1 (configuration not stated)	-21.9%
COCCn1cc(C(=O)Nc2nc3c(s2)CCC3)c2ccccc21	37%
Cc1nn2c(-c3snnc3C)nnc2s1	27.8%
COc1cccc(-c2cc(C(=O)Nc3nc[nH]n3)[nH]n2)c1	-11.1%
Cc1cc(-c2nn3c(C4CC4)nnc3s2)on1	12.2%
COc1ccc(-c2cc(C(=O)Nc3nc[nH]n3)[nH]n2)cc1	-12.1%
Cn1ccc2c(C(=O)NCCCN3CCOCC3)cccc21	11.5%
Cn1cnc2cc(CCC(=O)Nc3nc[nH]n3)ccc21	-0.94%

Structure (SMILES)	cytotoxicity at 70.5 h
COc1ccc2c(c1)c(C(=O)Nc1cc(C)n(C)n1)cn2C(C)C	-0.21%
COCCn1ccc2c(NC(=O)c3n[nH]c4c3CCCC4)cccc21	7.53%
COc1ccc2c(ccn2CCC(=O)Nc2nc[nH]n2)c1	0.0223%
CSCCC(Nc1nc(C)cc(C)n1)C(=O)NC1CC1 (configuration not stated)	-10.9%
O=C(C1CC(=O)N(c2n[nH]c3cc(Br)ccc23)C1)N1CCCC1 (configuration not stated)	-9.16%
Cc1nnsc1-c1nnc2sc(C(C)C)nn12	3.22%
COCCn1cc(CC(=O)Nc2c(C)nn(C)c2C)c2ccccc21	-5.58%
Cc1ccc(C(=O)NC2CC2)c(-n2cnnn2)c1C	-17.7%
COC(=O)c1ccc(C2SCC(=O)Nc3c2cnn3C2CCCC2)cc1 (configuration not stated)	-12.4%
COc1cccc2c1ccn2CC(=O)Nc1nc[nH]n1	-11.8%
Cc1cc(O)cc(=O)n1CCCC(=O)Nc1n[nH]c2cccc(F)c12	-16.5%
CC(C)c1sc(Br)nc1C(=O)NCc1ccncc1	23%
Cc1ncc(CNC(C)(C)CO)c2cc(C(=O)c3ccc(Br)cc3)oc12	-14.3%
CC(C)OCCCNC(=O)C1CC(=O)N(c2n[nH]c3cccc(F)c23)C1 (configuration not stated)	-23.7%
O=C(CCc1nnc2ccccn2c1=O)NCc1ccco1	24.6%
CC(C)Cn1cnc2ccc(NC(=O)CCCn3cccn3)cc2c1=O	-2.92%
O=C1CSC(c2ccc(O)cc2)c2c(n(C3CCOCC3)[nH]c2=O)N1 (configuration not stated)	-23.1%
COC(=O)CC(c1cccs1)c1oc(C)cc(=O)c1O (configuration not stated)	-7.87%
COc1ccc2c(ccn2CC(=O)Nc2n[nH]c(C(C)C)n2)c1	-12.1%
Cn1cnc2cc(NC(=O)c3n[nH]c4c3CCC4)ccc21	-3.46%
O=C(NCCc1ccccn1)c1n[nH]c2c1CCC2	-5.6%
COCCn1cnc2ccc(NC(=O)c3ccccn3)cc2c1=O	-9.53%
O=C(NC1CCCc2c1[nH]c1ccc(F)cc21)c1n[nH]c2c1CCC2 (configuration not stated)	26.4%
CC(C)c1sc(Cl)nc1C(=O)N1CCN(c2ccccn2)CC1	29.7%

Structure (SMILES)	cytotoxicity at 70.5 h
COC(=O)CNC(=O)c1nc(Cl)sc1C(C)C	24.5%
CN(C)CCCn1cnc2cc(NC(=O)c3n[nH]c4c3CCC4)ccc21	-4.15%
COc1ccc(N2CCN(C(=O)c3nc(Cl)sc3C(C)C)CC2)cc1	-18.9%
COc1cn(CC(=O)N2CCN(c3ccc(Cl)cc3)CC2)c(C)cc1=O	23.5%
CCCn1cc(-c2ccnc(NC3CCc4ccccc43)n2)c(C)n1 (configuration not stated)	4.9%
COc1ccc(C(=O)N2CC(c3ccncc3)C2)c(OC)c1OC	-5.75%
Cc1cc(C)n(C2CCCN(C(=O)c3ccc4c(c3)COC4)C2)n1 (configuration not stated)	1.09%
Cc1cc(C)n(CC2CCCN2C(=O)c2cccn3ccnc23)n1 (configuration not stated)	-1.92%
Cc1nc(C)n(C2CCCN(C(=O)c3ccc(O)nc3)C2)n1 (configuration not stated)	-5.29%
CC(C)=CCN1CCN(Cc2nccn2C)C(C)C1 (configuration not stated)	22%
CCc1nc(C2CCCN2C(=O)c2ccc(N(C)C)nn2)no1 (configuration not stated)	-0.946%
Cc1cc(C(=O)N2CCCC2c2noc(C(C)C)n2)c(C)o1 (configuration not stated)	-3.94%
c1cnn(CC2CCCCN2c2ncnc3ccsc23)c1 (configuration not stated)	18.2%
CC(=O)N(Cc1ncc(C(C)C)o1)C1CCN(Cc2cc(C)no2)C1 (configuration not stated)	-4.1%
CC(=O)N(Cc1ncc(C(C)C)o1)C1CCN(Cc2cc(C)on2)C1 (configuration not stated)	-6.93%
Cc1nc(CN2CCCC2c2noc(C3CC3)n2)oc1C (configuration not stated)	-9.58%
c1cnc(-c2nc(CN3CCCC(N4CCCC4)C3)cs2)nc1 (configuration not stated)	-3.36%
CCN(CC)CC1CCN(C(=O)CCn2cccn2)CC1	-1.21%
COc1cccc(CC(=O)N2CCC(NCc3c[nH]nc3C)CC2)c1	-4.19%
COC1CCN(C(=O)CCn2cccn2)CC1	-8.03%
CCCC1CCCN(Cc2csc(-c3ncccn3)n2)CC1 (configuration not stated)	-1.51%
Cc1nc(C2CCCN2Cc2nc(C3CC3)no2)no1 (configuration not stated)	-2.5%
CC(=O)NC1CCCN(Cc2csc(-c3ncccn3)n2)C1 (configuration not stated)	18.7%
CC(=O)NCCNC(=O)c1sc(-c2ccc(Cl)cc2)nc1C	-4.15%

Structure (SMILES)	cytotoxicity at 70.5 h
COC(=O)CNC(=O)c1sc(-c2ccc(Cl)s2)nc1C	-3.49%
O=C(Nc1ccc(CCN2CCOCC2)cc1)C1CC1	-4.46%
CCN1CCN(C(=O)c2ccc(Cn3ccccc3=O)o2)CC1	-9.18%
Cc1nc(-c2ccc(Cl)s2)sc1C(=O)NCCCC(N)=O	-4.42%
O=C(NCc1csc(Br)c1)N1CCC(O)CC1	-4.25%
NC(=O)C1CCN(Cc2csc(-c3ncccn3)n2)CC1	18.7%
Cc1ccc(-c2nc(C(=O)N3CCCC(C(N)=O)C3)cs2)c(C)c1 (configuration not stated)	-8.34%
Cc1ncc2c(n1)CN(Cc1nnc(-c3ccccc3)o1)CC2	-7.67%
c1cncc(-c2noc(CNC3CCc4ncnn4C3)n2)c1 (configuration not stated)	-5.95%
c1csc(-c2noc(CNC3CCc4ncnn4C3)n2)c1 (configuration not stated)	-8.26%
CCC(=O)N1CCN(C(=O)Cn2cccn2)CC1	-4.66%
O=C(Nc1ccc(CCN2CCC(O)CC2)cc1)C1CCCOC1 (configuration not stated)	-3.52%
Cc1ccc(CCC(=O)N2CCOCC2c2ncon2)c(C)c1 (configuration not stated)	13.3%
c1ncn(CC2CN(Cc3nc(C4CC4)no3)CCO2)n1 (configuration not stated)	17.2%
CN(C)CC1CN(Cc2nc(-c3ccccn3)no2)CCO1 (configuration not stated)	16.4%
CC(C)c1nc(CN2CCOC(Cn3cncn3)C2)no1 (configuration not stated)	-8.23%
CC(NC(=O)NCCCN1CCCC1=O)c1nncn1C (configuration not stated)	-9.31%
CC(NC(=O)NCCCN1CCc2ccccc2C1)c1nncn1C (configuration not stated)	7.19%
CS(=O)(=O)NCCC(=O)Nc1cnn(-c2ccccc2Cl)c1	-11.9%
CCCc1nc(C(C)(C)NC(=O)C2CC(=O)N(CCOC)C2)no1 (configuration not stated)	-10.7%
CCCc1nc(C(C)(C)NC(=O)C2CC(=O)N(C3CC3)C2)no1 (configuration not stated)	-6.42%
CC(NC(=O)NCCCN1CCCCCC1=O)c1nncn1C (configuration not stated)	10.2%
COc1c(CNCCNC(=O)c2ccc(C)cc2)c(C(C)C)nn1C	-8.14%
CCOc1cc(C)nc(N2CCN(C(=O)c3ccncc3)CC2)n1	5.92%

Structure (SMILES)	cytotoxicity at 70.5 h
CCOc1cc(C)nc(N2CCN(C(=O)CN(C)C3CC3)CC2)n1	-9.22%
CCOc1cc(C)nc(N2CCN(C(=O)c3cc(C)on3)CC2)n1	-1.38%
CCOc1cc(C)nc(N2CCN(C(=O)c3csnn3)CC2)n1	-12.5%
c1ccc(Cc2noc(CN3CCOC(Cn4cncn4)C3)n2)cc1 (configuration not stated)	12%
Cc1cc(C(=O)N2CCCC(c3cc(C(F)(F)F)[nH]n3)C2)[nH]n1 (configuration not stated)	3.57%
Cc1cc(C(=O)N2CCCC(c3cc(C(F)(F)F)[nH]n3)C2)on1 (configuration not stated)	-4.58%
Cc1ccc(C(=O)NS(=O)(=O)c2c(Cl)cccc2Cl)c(=O)[nH]1	-5.05%
Cc1ccc(C(=O)NS(=O)(=O)c2ccccc2Br)c(=O)[nH]1	-7.74%
Cn1c(C2CC2)nc2c1CCN(Cc1nc(-c3ccsc3)no1)C2	-10.5%
Cc1[nH]ncc1C(=O)N1CCCC(c2ccn[nH]2)C1 (configuration not stated)	-12.2%
COc1ccc(CCN(C)C2CCCN(Cc3noc(C)n3)C2)cc1 (configuration not stated)	25%
O=C(CN1CCCC1c1noc(C2CC2)n1)NCCc1ccsc1 (configuration not stated)	4.35%
CC1CN(C)c2ccccc2N(C(=O)c2ccc(=O)n(C)c2)C1 (configuration not stated)	6.89%
CN(Cc1nccn1C)C1CCN(CCc2ccccn2)CC1	0.568%
COCCN1CCN(CCS(C)(=O)=O)CC1C (configuration not stated)	8.39%
N#Cc1cc(F)ccc1CN1CCCC1Cn1cccn1 (configuration not stated)	-5.11%
COc1c(C2CCCN2CC(=O)Nc2cc(C)on2)c(C)nn1C (configuration not stated)	12.2%
COCCCN1CCN(CCOC)C(C)C1 (configuration not stated)	0.867%
N#Cc1ccc(CN2CCCCC2Cn2cccn2)cc1 (configuration not stated)	16%
Cc1ncc(CNCCO)c2cc(C(=O)c3ccc(Br)cc3)oc12	-18%
Cc1ncc(CNCC(C)O)c2cc(C(=O)c3ccc(Br)cc3)oc12 (configuration not stated)	-16.1%
